{"source": "patent US20100292509A1", "about": "“VEGFC PRODUCTION PROMOTER” (Shiseido Company, Ltd, priority 2008, published 2010)", "test_system": "VEGFC", "settings": "HaCaT cells; 7% by weight drug solution added at 1/100, 1/1000 or 1/10000 the amount of culture liquid; 48 hours; solvent control assigned 100; FIG. 1", "description": "HaCaT cells, which are cultured cells derived from human epidermis (German Cancer Research Center, Heidelberg, Germany), were cultured in DMEM containing 10% FBS and seeded into a 24-well plate at 15×10^4 cells per well. After about 24 hours, the medium was replaced with serum-free DMEM followed by culturing for 24 hours. Subsequently, a solution of a candidate drug dissolved in water to a concentration of 7% by weight was added in an amount equal to 1/100, 1/1000 or 1/10000 the amount of culture liquid followed by additional culturing. 48 hours after adding the drug, the culture supernatant was recovered and the amount of VEGFC in the culture supernatant was quantified by ELISA (R&D Systems) in accordance with the protocol. In addition, Alamar Blue (TREK Diagnostic Systems) was added to the cells following recovery of culture supernatant followed by measurement of the number of cells as fluorescence intensity (Ex: 544 nm, Em: 590 nm). The amount of VEGFC expressed per cell was determined by dividing the amount of VEGFC in the culture supernatant by the fluorescence value of the Alamar Blue. A solvent in the form of 70% EtOH was added to the cells instead of drug for use as a control, and the value thereof was assigned a value of 100. In addition, 5% FBS was used as a positive control."}
{"compound": "CNC(=O)[C@H]1CC[C@H](CN)CC1.Cl", "note": "[tranexamic acid methylamide hydrochloride]", "values": [{"measurement": "VEGFC induction activity (amount of VEGFC expressed per cell)", "value": "dose-dependent VEGFC induction activity that exceeded that of the control"}]}
